# How the values were obtained:
# Assay type in all cases: biochemical
# enkephalinase = enkephalinase (Homo sapiens, UniProt P08473); experiment: Selectivity against other zinc-containing metalloproteases: enkephalinase; conditions: selectivity statement
# neurolysin = neurolysin (Homo sapiens, UniProt Q9BYT8); experiment: Neurolysin inhibition assay (fluorogenic substrate, 384-well); conditions: substrate Mcc-Pro-Leu-Gly-D-Lys(Dnp)-OH 4 μM, 30° C., 30 min, Tris buffer pH 7.5
# Method: An assay was performed on a CyBio pipetting system in a 384-well plate format in a final assay volume of 16 μl. In brief, 4 μl of appropriately diluted microbial extracts (dilution in 50 mM Tris buffer, pH 7.5) were distributed in wells of test plates (Greiner, white 384-small volume well plates). Thereafter, 4 μl of neurolysin (pre-diluted 1:5, 360 ng of protein) were added to each well. After a 10 minute pre-incubation of the samples and the enzyme at room temperature, the reaction was initiated by the addition of 8 μl of substrate (Mcc-Pro-Leu-Gly-D-Lys (Dnp)—OH, CALBIOCHEM) in Tris buffer. The final test concentration of the substrate was 4 μM.
# After pipetting, the plates were immediately placed in a fluorometer (SpectraFluorplus, SLT) and the initial amount of fluorescence was read (λex: 360 nm/λem405 nm). The reaction was then allowed to proceed at 30° C. for 30 min, and a final fluorescence reading was taken.
# The data are first blank corrected. Then, after subtracting the values at the zero time point from the respective values after 30 min, sample inhibition activity was expressed as 100−(Net Intensity compound/Net Intensity control)×100(%)
# Each test plate contained a reasonable number of positive controls and blanks (buffer instead of enzyme).
# [1] = system: angiotensin converting enzymes; experiment: Selectivity against other zinc-containing metalloproteases: angiotensin converting enzymes; conditions: selectivity statement
# Sequence of enkephalinase (P08473 whole entry, species assumed): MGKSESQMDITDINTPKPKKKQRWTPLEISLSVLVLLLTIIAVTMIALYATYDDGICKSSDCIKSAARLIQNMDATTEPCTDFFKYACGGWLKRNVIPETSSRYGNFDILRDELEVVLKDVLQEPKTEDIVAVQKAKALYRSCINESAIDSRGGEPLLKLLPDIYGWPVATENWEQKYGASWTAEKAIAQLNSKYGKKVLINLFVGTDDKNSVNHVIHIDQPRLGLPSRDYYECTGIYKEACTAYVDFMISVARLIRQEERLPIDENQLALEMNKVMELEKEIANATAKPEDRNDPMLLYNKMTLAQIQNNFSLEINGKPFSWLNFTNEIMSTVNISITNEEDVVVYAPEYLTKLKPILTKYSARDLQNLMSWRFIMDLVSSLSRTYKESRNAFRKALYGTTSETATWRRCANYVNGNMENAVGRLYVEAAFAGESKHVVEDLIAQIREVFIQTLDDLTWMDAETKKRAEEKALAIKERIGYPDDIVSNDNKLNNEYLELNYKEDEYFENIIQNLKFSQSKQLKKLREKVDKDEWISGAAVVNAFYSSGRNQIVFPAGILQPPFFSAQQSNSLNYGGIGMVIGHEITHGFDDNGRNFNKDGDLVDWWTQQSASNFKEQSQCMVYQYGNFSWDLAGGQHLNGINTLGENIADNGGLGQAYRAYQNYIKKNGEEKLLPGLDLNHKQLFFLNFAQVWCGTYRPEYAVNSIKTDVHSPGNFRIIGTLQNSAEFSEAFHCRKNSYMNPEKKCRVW
# Sequence of neurolysin (Q9BYT8 38-704): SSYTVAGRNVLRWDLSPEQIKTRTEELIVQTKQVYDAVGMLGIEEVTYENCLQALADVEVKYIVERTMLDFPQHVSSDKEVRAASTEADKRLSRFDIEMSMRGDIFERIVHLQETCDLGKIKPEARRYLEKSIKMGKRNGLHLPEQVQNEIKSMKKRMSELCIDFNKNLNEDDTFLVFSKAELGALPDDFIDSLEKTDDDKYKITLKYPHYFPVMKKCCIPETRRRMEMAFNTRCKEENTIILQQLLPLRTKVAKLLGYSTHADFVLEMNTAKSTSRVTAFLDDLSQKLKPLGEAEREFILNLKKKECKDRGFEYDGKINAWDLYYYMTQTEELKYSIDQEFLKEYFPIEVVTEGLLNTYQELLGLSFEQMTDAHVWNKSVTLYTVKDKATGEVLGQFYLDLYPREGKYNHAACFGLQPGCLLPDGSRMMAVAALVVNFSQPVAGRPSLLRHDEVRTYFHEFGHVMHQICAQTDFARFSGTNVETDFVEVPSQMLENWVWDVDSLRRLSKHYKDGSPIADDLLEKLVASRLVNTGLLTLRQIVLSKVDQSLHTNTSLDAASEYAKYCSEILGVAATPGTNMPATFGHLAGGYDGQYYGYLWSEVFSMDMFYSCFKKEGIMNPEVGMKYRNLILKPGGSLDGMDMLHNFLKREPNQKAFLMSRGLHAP
compound,measurement,setting,value
CC(=O)NC1=C2SS(=O)(=O)C=C2N(C)C1=O [thiolutin dioxide],blocking of enkephalinase,enkephalinase,does not block
same,IC50,neurolysin,600 nM
same,blocking of angiotensin converting enzymes,[1],does not block

# Source: patent US20050059725A1, “Methods of using and preparing thiolutin dioxide” (Aventis Pharma Deutschland GmbH, priority 2001, published 2005)
